Assay results from US10195185B2, “3-(1H-imidazo[4,5-C]pyridin-2-yl)-1H-pyrazolo[4,3-B]pyridines and therapeutic uses thereof” (Samumed, LLC, priority 2015, dated 2019).

How the values were obtained:
[1] = system: Primary human fibroblasts derived from IPF patients (LL29 cells) treated with TGF-β1; experiment: Inhibition of the fibrotic process: αSMA staining in TGF-β1 treated fibroblasts; assay type: cell-based; details: Fibroblast, 96 h, LL29 fibroblasts treated with TGF-β1, 4 days; for inhibition at 10 µM: read-out: percent inhibition in brackets beside EC50 >10 μM
Procedure, shortened: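 LL29 IPF-patient lung fibroblasts in 1% FBS F12 were given compounds (11-point, 10 μM to […], 0.1% DMSO) plus TGF-β1 20 ng/mL for 4 days at 37 °C. αSMA-positive fraction of live (SYTOX-negative) cells was imaged and normalized to TGF-β1/DMSO wells. EC50 by non-linear regression, or % inhibition at 10 μM if >10 μM.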

[2] = system: primary human mesenchymal stem cells (hMSCs); experiment: Induction of chondrogenesis in hMSCs (nodule area, Rhodamine B / Nile Red); assay type: cell-based; details: TGF-β3 as positive control; for Emax: read-out: Max. Activity as % TGF-β3 activity; for EC50: concentration required to induce 50% levels of chondrogenesis, read-out: Conc (nM) of 50% TGF-β3 activity
Procedure, shortened: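 Primary hMSCs (passage 3–6) in incomplete chondrogenic induction medium were treated 6 days at 37° C. with 1:3 dilutions (2700–10 nM in 96-well or 5000–2.2 nM in 384-well; 0.03% DMSO). Rhodamine B/Nile Red-stained nodule area was imaged, normalized to DMSO wells, and EC50 was set against TGF-β3 (10 ng/mL).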

Row | SMILES | EC50 [1] [nM] | inhibition at 10 µM [1] [%] | Emax [2] [%] | EC50 [2] [nM]
1 | Fc1cccc(-c2nccc3[nH]c(-c4n[nH]c5ccc(-c6cnccn6)nc45)nc23)c1 [Compound 520, 3-(4-(3-Fluorophenyl)-1H-imidazo[4,5-c]pyridin-2-yl)-5-(pyrazin-2-yl)-1H-pyrazolo[4,3-b]pyridine] | > 10000 | 2.4 | 55 | 21
2 | Fc1cccc(-c2nccc3[nH]c(-c4n[nH]c5ccc(C6CCNCC6)nc45)nc23)c1 [Compound 505, 3-(4-(3-Fluorophenyl)-1H-imidazo[4,5-c]pyridin-2-yl)-5-(piperidin-4-yl)-1H-pyrazolo[4,3-b]pyridine] | 3800 | – | 46 | –
3 | CN(C)CCOc1cncc(-c2ccc3[nH]nc(-c4nc5c(-c6cccc(F)c6)nccc5[nH]4)c3n2)c1 [Compound 515, 2-((5-(3-(4-(3-Fluorophenyl)-1H-imidazo[4,5-c]pyridin-2-yl)-1H-pyrazolo [4,3-b]pyridin-5-yl)pyridin-3-yl)oxy)-N,N-dimethylethan-1-amine] | 865 | – | 59 | 2
4 | Oc1cncc(-c2ccc3[nH]nc(-c4nc5c(-c6cccc(F)c6)nccc5[nH]4)c3n2)c1 [Compound 517, 5-(3-(4-(3-Fluorophenyl)-1H-imidazo[4,5-c]pyridin-2-yl)-1H-pyrazolo[4,3-b]pyridin-5-yl)pyridin-3-ol] | 1560 | – | 57 | 7
5 | CC(C)Nc1cncc(-c2ccc3[nH]nc(-c4nc5c(-c6cc(F)cc(NCCN(C)C)c6)nccc5[nH]4)c3n2)c1 [Compound 460, N^1-(3-Fluoro-5-(2-(5-(5-(isopropylamino)pyridin-3-yl)-1H-pyrazolo[4,3-b]pyridin-3-yl)-1H-imidazo[4,5-c]pyridin-4-yl)phenyl)-N^2,N^2-dimethylethane-1,2-diamine] | 732 | – | 116 | 30
6 | CCCCC(=O)Nc1cncc(-c2ccc3[nH]nc(-c4nc5c(-c6cc(F)cc(NCCN(C)C)c6)nccc5[nH]4)c3n2)c1 [Compound 467, N-(5-(3-(4-(3-((2-(Dimethylamino)ethyl)amino)-5-fluorophenyl)-1H-imidazo[4,5-c]pyridin-2-yl)-1H-pyrazolo[4,3-b]pyridin-5-yl)pyridin-3-yl)pentanamide] | 1190 | – | 52 | 100
7 | CN(C)c1cncc(-c2ccc3[nH]nc(-c4nc5c(-c6cccc(F)c6)nccc5[nH]4)c3n2)c1 [Compound 7] | 387 | – | 58 | 900
8 | COc1cncc(-c2ccc3[nH]nc(-c4nc5c(-c6cccc(F)c6)nccc5[nH]4)c3n2)c1 [Compound 516, 3-(4-(3-Fluorophenyl)-1H-imidazo[4,5-c]pyridin-2-yl)-5-(5-methoxypyridin-3-yl)-1H-pyrazolo[4,3-b]pyridine] | 93 | – | 60 | 21
9 | CCCC(=O)Nc1cncc(-c2ccc3[nH]nc(-c4nc5c(-c6cc(F)cc(CNS(C)(=O)=O)c6)nccc5[nH]4)c3n2)c1 [Compound 493, N-(5-(3-(4-(3-Fluoro-5-(methylsulfonamidomethyl)phenyl)-1H-imidazo[4,5-c]pyridin-2-yl)-1H-pyrazolo[4,3-b]pyridin-5-yl)pyridin-3-yl)butyramide] | > 10000 | 0 | 46 | –
10 | CCNCc1cncc(-c2ccc3[nH]nc(-c4nc5c(-c6cc(F)cc(NCCN(C)C)c6)nccc5[nH]4)c3n2)c1 [Compound 454, N^1-(3-(2-(5-(5-((Ethylamino)methyl)pyridin-3-yl)-1H-pyrazolo[4,3-b]pyridin-3-yl)-1H-imidazo[4,5-c]pyridin-4-yl)-5-fluorophenyl)-N^2,N^2-dimethylethane-1,2-diamine] | 3680 | – | 36 | –
11 | CN(C)Cc1cncc(-c2ccc3[nH]nc(-c4nc5c(-c6cccc(F)c6)nccc5[nH]4)c3n2)c1 [Compound 13, 1-(5-(3-(4-(3-Fluorophenyl)-1H-imidazo[4,5-c]pyridin-2-yl)-1H-pyrazolo [4,3-b]pyridin-5-yl)pyridin-3-yl)-N,N-dimethylmethanamine] | 1690 | – | 76 | 30
